Consider 47 substances from patent publication US10517889B2, “Modulators of SMAD7 expression” (Ionis Pharmaceuticals, Inc., priority 2017, dated 2019).

Strand notation (5' to 3'): a small letter for the sugar, then the base; units joined by * are phosphorothioate-linked, units joined directly phosphodiester-linked; [ ] holds rarer units or linkages, { } end groups; capitals alone tell only the bases. k = constrained ethyl (cEt); [5mC] = 5-methylcytosine; d = 2'-deoxy (DNA)

This data set deals with human SMAD7 mRNA. The data set is described as follows: Antisense inhibition of human SMAD7 mRNA expression in Hep3B cells by 3-10-3 cEt gapmers, 10,000 nM, electroporation (Example 2). It is filed as cell-based. Particulars: SMAD7 mRNA, Hep3B cells, 10,000 nM antisense oligonucleotide, electroporation, approximately 24 hours, primer probe set RTS5062, relative to untreated control cells. In a few lines: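 qRT-PCR (RTS5062) of SMAD7 mRNA, normalised to RIBOGREEN total RNA, gave percent inhibition relative to untreated controls. Hep3B cells at 20,000 per well received 10,000 nM oligonucleotide by electroporation, with ~24 h treatment.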
For the substance “829716 (antisense kG*kT*k[5mC]*dT*d[5mC]*d[5mC]*d[5mC]*dG*dG*dA*dG*dG*d[5mC]*k[5mC]*kG*kG) [compound 829716]”, the % Inhibition (usually the relative decrease from the control value, in per cent) is reported as 10%.

As for “829717 (antisense kA*kG*kT*d[5mC]*dT*d[5mC]*d[5mC]*d[5mC]*dG*dG*dA*dG*dG*k[5mC]*k[5mC]*kG) [compound 829717]”, the “% Inhibition” value turned out to be 28%.

For “829718 (antisense k[5mC]*k[5mC]*kA*dG*dT*d[5mC]*dT*d[5mC]*d[5mC]*d[5mC]*dG*dG*dA*kG*kG*k[5mC]) [compound 829718]”, the “% Inhibition” value is listed as 15%.

“829719 (antisense kG*k[5mC]*k[5mC]*dA*dG*dT*d[5mC]*dT*d[5mC]*d[5mC]*d[5mC]*dG*dG*kA*kG*kG) [compound 829719]”: the “% Inhibition” value came out at 15%.

“829720 (antisense kG*k[5mC]*kG*d[5mC]*d[5mC]*dA*dG*dT*d[5mC]*dT*d[5mC]*d[5mC]*d[5mC]*kG*kG*kA) [compound 829720]”: the “% Inhibition” value came out at 14%.

Take “829721 (antisense kT*kG*k[5mC]*dG*d[5mC]*d[5mC]*dA*dG*dT*d[5mC]*dT*d[5mC]*d[5mC]*k[5mC]*kG*kG) [compound 829721]”: the “% Inhibition” value was 33%.

Regarding “829722 (antisense kA*kT*kG*d[5mC]*dG*d[5mC]*d[5mC]*dA*dG*dT*d[5mC]*dT*d[5mC]*k[5mC]*k[5mC]*kG) [compound 829722]”, the “% Inhibition” value was determined as 38%.

With “829723 (antisense kG*k[5mC]*kA*dT*dG*d[5mC]*dG*d[5mC]*d[5mC]*dA*dG*dT*d[5mC]*kT*k[5mC]*k[5mC]) [compound 829723]”, the “% Inhibition” value came out at 54%.

For “829724 (antisense kG*kG*k[5mC]*dA*dT*dG*d[5mC]*dG*d[5mC]*d[5mC]*dA*dG*dT*k[5mC]*kT*k[5mC]) [compound 829724]”, the “% Inhibition” value was determined as 54%.

As for “829725 (antisense k[5mC]*k[5mC]*kG*dT*dG*dG*d[5mC]*dA*dT*dG*d[5mC]*dG*d[5mC]*k[5mC]*kA*kG) [compound 829725]”, the “% Inhibition” value is on record as 41%.

For “829726 (antisense k[5mC]*kT*k[5mC]*d[5mC]*dG*dT*dG*dG*d[5mC]*dA*dT*dG*d[5mC]*kG*k[5mC]*k[5mC]) [compound 829726]”, the “% Inhibition” value is listed as 41%.

In the case of “829727 (antisense kG*k[5mC]*kT*d[5mC]*d[5mC]*dG*dT*dG*dG*d[5mC]*dA*dT*dG*k[5mC]*kG*k[5mC]) [compound 829727]”, the “% Inhibition” value came out at 35%.

Consider “829728 (antisense kG*kG*k[5mC]*dG*d[5mC]*dA*dG*dG*d[5mC]*dG*dA*d[5mC]*dA*kG*k[5mC]*kA) [compound 829728]”, for which the “% Inhibition” value is reported as 44%.

Turning to “829729 (antisense kA*kG*kG*d[5mC]*dG*d[5mC]*dA*dG*dG*d[5mC]*dG*dA*d[5mC]*kA*kG*k[5mC]) [compound 829729]”, the “% Inhibition” value is recorded as 66%.

Take “829730 (antisense kG*k[5mC]*kA*dG*dG*d[5mC]*dG*d[5mC]*dA*dG*dG*d[5mC]*dG*kA*k[5mC]*kA) [compound 829730]”: the “% Inhibition” value was 23%.

As to “829731 (antisense kA*kG*k[5mC]*dA*dG*dG*d[5mC]*dG*d[5mC]*dA*dG*dG*d[5mC]*kG*kA*k[5mC]) [compound 829731]”, the “% Inhibition” value was 50%.

Regarding “829732 (antisense k[5mC]*kA*kT*dG*dA*dA*dG*dA*dA*dG*dT*d[5mC]*dG*kG*kG*k[5mC]) [compound 829732]”, the “% Inhibition” value is recorded as 40%.

For “829733 (antisense kA*k[5mC]*k[5mC]*dA*dT*dG*dA*dA*dG*dA*dA*dG*dT*k[5mC]*kG*kG) [compound 829733]”, the “% Inhibition” value is given as 54%.

In the case of “829735 (antisense k[5mC]*k[5mC]*kT*d[5mC]*d[5mC]*dG*d[5mC]*dA*d[5mC]*dA*d[5mC]*d[5mC]*dA*kT*kG*kA) [compound 829735]”, the “% Inhibition” value came to 61%.

In the case of “829736 (antisense kG*kG*kA*dG*d[5mC]*dG*dA*dA*d[5mC]*dA*dT*dG*dA*k[5mC]*k[5mC]*kT) [compound 829736]”, the “% Inhibition” value is listed as 41%.

With “829737 (antisense kA*kG*kG*dA*dG*d[5mC]*dG*dA*dA*d[5mC]*dA*dT*dG*kA*k[5mC]*k[5mC]) [compound 829737]”, the “% Inhibition” value came to 52%.

For “829738 (antisense kT*kA*kA*dG*dG*dA*dG*d[5mC]*dG*dA*dA*d[5mC]*dA*kT*kG*kA) [compound 829738]”, the “% Inhibition” value is 49%.

With “829739 (antisense kT*kG*k[5mC]*dT*dA*dA*dG*dG*dA*dG*d[5mC]*dG*dA*kA*k[5mC]*kA) [compound 829739]”, the “% Inhibition” value was determined as 44%.

Take “829740 (antisense k[5mC]*kT*kG*d[5mC]*dT*dA*dA*dG*dG*dA*dG*d[5mC]*dG*kA*kA*k[5mC]) [compound 829740]”: the “% Inhibition” value is reported as 52%.

“829741 (antisense k[5mC]*k[5mC]*kG*dG*dA*d[5mC]*dG*dA*dG*d[5mC]*dG*d[5mC]*dA*kG*kA*kT) [compound 829741]”: the “% Inhibition” value worked out at 32%.

For the substance “829742 (antisense k[5mC]*kG*k[5mC]*d[5mC]*dG*dG*dA*d[5mC]*dG*dA*dG*d[5mC]*dG*k[5mC]*kA*kG) [compound 829742]”, the “% Inhibition” value is 43%.

As to “829743 (antisense kA*k[5mC]*kG*d[5mC]*d[5mC]*dG*dG*dA*d[5mC]*dG*dA*dG*d[5mC]*kG*k[5mC]*kA) [compound 829743]”, the “% Inhibition” value came out at 25%.

On to “829744 (antisense kA*k[5mC]*kG*dG*d[5mC]*dT*d[5mC]*d[5mC]*dT*d[5mC]*d[5mC]*dA*dG*kA*kG*kA) [compound 829744]”, for which the “% Inhibition” value turned out to be 39%.

As for “829745 (antisense k[5mC]*kG*kG*dG*d[5mC]*dG*d[5mC]*dA*d[5mC]*dG*dG*d[5mC]*dT*k[5mC]*k[5mC]*kT) [compound 829745]”, the “% Inhibition” value is recorded as 19%.

In the case of “829746 (antisense k[5mC]*k[5mC]*kG*dG*dG*d[5mC]*dG*d[5mC]*dA*d[5mC]*dG*dG*d[5mC]*kT*k[5mC]*k[5mC]) [compound 829746]”, the “% Inhibition” value came to 46%.

With “829747 (antisense kT*k[5mC]*kG*d[5mC]*d[5mC]*dG*d[5mC]*d[5mC]*dG*dG*dG*d[5mC]*dG*k[5mC]*kA*k[5mC]) [compound 829747]”, the “% Inhibition” value amounted to 16%.

As to “829748 (antisense k[5mC]*kT*k[5mC]*dG*d[5mC]*d[5mC]*dG*d[5mC]*d[5mC]*dG*dG*dG*d[5mC]*kG*k[5mC]*kA) [compound 829748]”, the “% Inhibition” value is reported as 43%.

Turning to “829749 (antisense kT*k[5mC]*k[5mC]*dT*d[5mC]*dG*d[5mC]*d[5mC]*dG*d[5mC]*d[5mC]*dG*dG*kG*k[5mC]*kG) [compound 829749]”, the “% Inhibition” value is 26%.

Consider “829750 (antisense k[5mC]*kG*kT*d[5mC]*d[5mC]*dT*d[5mC]*dG*d[5mC]*d[5mC]*dG*d[5mC]*d[5mC]*kG*kG*kG) [compound 829750]”, for which the “% Inhibition” value is on record as 33%.

With “829751 (antisense kG*k[5mC]*kA*dG*d[5mC]*dT*d[5mC]*dG*d[5mC]*d[5mC]*dT*d[5mC]*d[5mC]*kT*k[5mC]*k[5mC]) [compound 829751]”, the “% Inhibition” value is given as 40%.

As to “829752 (antisense k[5mC]*k[5mC]*kG*d[5mC]*dA*dG*d[5mC]*dT*d[5mC]*dG*d[5mC]*d[5mC]*dT*k[5mC]*k[5mC]*kT) [compound 829752]”, the “% Inhibition” value was 27%.

Turning to “829753 (antisense kT*k[5mC]*k[5mC]*d[5mC]*d[5mC]*dG*d[5mC]*dA*dG*d[5mC]*dT*d[5mC]*dG*k[5mC]*k[5mC]*kT) [compound 829753]”, the “% Inhibition” value is listed as 29%.

Take “829754 (antisense kT*k[5mC]*kT*d[5mC]*d[5mC]*d[5mC]*d[5mC]*dG*d[5mC]*dA*dG*d[5mC]*dT*k[5mC]*kG*k[5mC]) [compound 829754]”: the “% Inhibition” value was found to be 49%.

Regarding “829755 (antisense kT*kT*k[5mC]*dT*d[5mC]*d[5mC]*d[5mC]*d[5mC]*dG*d[5mC]*dA*dG*d[5mC]*kT*k[5mC]*kG) [compound 829755]”, the “% Inhibition” value came out at 52%.

Turning to “829756 (antisense k[5mC]*k[5mC]*kG*dT*d[5mC]*dG*d[5mC]*d[5mC]*d[5mC]*d[5mC]*dT*dT*d[5mC]*kT*k[5mC]*k[5mC]) [compound 829756]”, the “% Inhibition” value came to 42%.

For “829757 (antisense k[5mC]*k[5mC]*kG*dG*d[5mC]*d[5mC]*d[5mC]*d[5mC]*dA*dT*dG*d[5mC]*dG*k[5mC]*kT*k[5mC]) [compound 829757]”, the “% Inhibition” value was found to be 15%.

Regarding “829758 (antisense k[5mC]*kA*k[5mC]*d[5mC]*dG*dG*d[5mC]*d[5mC]*d[5mC]*d[5mC]*dA*dT*dG*k[5mC]*kG*k[5mC]) [compound 829758]”, the “% Inhibition” value is on record as 24%.

As for “829759 (antisense k[5mC]*k[5mC]*kG*d[5mC]*d[5mC]*dA*d[5mC]*d[5mC]*dG*dG*d[5mC]*d[5mC]*d[5mC]*k[5mC]*kA*kT) [compound 829759]”, the “% Inhibition” value amounted to 51%.

Regarding “829760 (antisense k[5mC]*k[5mC]*kG*d[5mC]*d[5mC]*dT*dT*dG*d[5mC]*d[5mC]*d[5mC]*dA*dG*kG*k[5mC]*kA) [compound 829760]”, the “% Inhibition” value was determined as 3%.

For “829761 (antisense kT*k[5mC]*kA*dG*dA*dT*d[5mC]*d[5mC]*dG*d[5mC]*d[5mC]*dT*d[5mC]*kG*kG*k[5mC]) [compound 829761]”, the “% Inhibition” value was 21%.

In the case of “829763 (antisense kG*kT*kT*dT*d[5mC]*dT*dT*dG*dA*dG*d[5mC]*dA*d[5mC]*k[5mC]*kG*kA) [compound 829763]”, the “% Inhibition” value was 65%.

On to “829764 (antisense k[5mC]*k[5mC]*kG*d[5mC]*dT*d[5mC]*d[5mC]*dT*dT*d[5mC]*dA*dG*dT*kT*kT*k[5mC]) [compound 829764]”, for which the “% Inhibition” value was 44%.
